EC50 data for 19 molecules are collected here from patent US10654834B2 (Venenum Biodesign, LLC, priority 2016, dated 2020).

The subject of one test is Mouse STC-1 cells. In words: STC-1 GLP-1 assay (GLP-1 secretion). In kind it is cell-based. In outline: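 Mouse STC-1 cells were plated two days ahead in DMEM with 10% charcoal-dextran stripped FBS, then exposed to compound in HBSS with protease inhibitors, DPP-IV inhibitor and 0.1% fatty acid free BSA for 2 h at 37° C. Active GLP-1 in supernatant was quantified by HTRF; EC50 derived from 12-point half-log curves.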

A further test has as its target T1, mouse TGR5 receptor (Mus musculus, UniProt Q80SS6).
T1 construct: host or cells: HEK293-EBNA (293 c18, ATCC CRL10852)
T1 sequence (Q80SS6 1-329): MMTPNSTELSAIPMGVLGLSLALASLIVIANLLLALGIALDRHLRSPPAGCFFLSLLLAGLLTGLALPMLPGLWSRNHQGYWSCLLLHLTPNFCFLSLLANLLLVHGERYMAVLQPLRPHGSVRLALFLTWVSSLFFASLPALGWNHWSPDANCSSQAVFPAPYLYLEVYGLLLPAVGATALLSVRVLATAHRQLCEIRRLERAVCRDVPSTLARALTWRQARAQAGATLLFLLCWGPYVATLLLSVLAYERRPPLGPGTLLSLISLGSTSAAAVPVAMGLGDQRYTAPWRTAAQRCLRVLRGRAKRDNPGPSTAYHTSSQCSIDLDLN
In words: Mouse TGR5 HTRF cAMP production assay (HEK293-EBNA cells, Cisbio cAMP HiRange kit). In kind it is cell-based. To be noted: HEK293-EBNA cells overexpressing mouse TGR5, HTRF cAMP assay. The gist of the method: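 HEK293-EBNA cells stably expressing mouse TGR5 (episomal vector) were suspended in serum-free DMEM with 500 μM IBMX and exposed to 12-point half-log compound dilutions for 1 h at room temperature. cAMP was detected by HTRF (d2-cAMP/anti-cAMP cryptate, 1 h, room temperature), giving EC50 from duplicates.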

Where [1] appears, read: Mouse STC-1 cells, GLP-1 secretion, 2 h, read-out: Mouse STC-1 HTRF GLP-1 Activity (EC50).

Like-named read-outs stand apart in the source and are kept apart here.

Consider `N#Cc1ccc(CCNC(=O)[C@@H]2CCCN2c2cc(N3CCC(CCCC(=O)NCCS(N)(=O)=O)CC3)nc(C(F)(F)F)n2)cc1` [Compound 62, (S)-N-(4-cyanophenethyl)-1-(6-(4-(4-oxo-4-((2-sulfamoylethyl)amino)butyl)piperidin-1-yl)-2-(trifluoromethyl)pyrimidin-4-yl)pyrrolidine-2-carboxamide], for which the EC50 in the test on Mouse STC-1 cells (setting [1]) and at mouse TGR5 receptor was less than 100 nM throughout.

`N#Cc1ccc(CCNC(=O)[C@@H]2CCCN2c2cc(N3CCC(CCCC(=O)NCS(=O)(=O)O)CC3)cc(C(F)(F)F)n2)cc1` [Compound 198, (S)-(4-(1-(2-(2-((4-cyanophenethyl)carbamoyl)pyrrolidin-1-yl)-6-(trifluoromethyl)pyridin-4-yl)piperidin-4-yl)butanamido)methanesulfonic acid]: the values for the EC50 in the test with Mouse STC-1 cells (setting [1]) and on mouse TGR5 receptor were 100 to 999 nM and less than 100 nM, respectively.

Consider `N#Cc1ccc(CCNC(=O)[C@@H]2CCCN2c2cc(N3CCC(CCCC(=O)NCCC(=O)NC(CO)(CO)CO)CC3)nc(C(F)(F)F)n2)cc1` [Compound 109, (S)—N-(4-cyanophenethyl)-1-(6-(4-(4-((3-((1,3-dihydroxy-2-(hydroxymethyl)propan-2-yl)amino)-3-oxopropyl)amino)-4-oxobutyl)piperidin-1-yl)-2-(trifluoromethyl)-pyrimidin-4-yl)pyrrolidine-2-carboxamide], for which the EC50 in the test with Mouse STC-1 cells (setting [1]) was 100 to 999 nM; at mouse TGR5 receptor, less than 100 nM.

Consider `O=C(O)CNS(=O)(=O)CCNC(=O)CCCC1CCN(c2cc(N3CCC[C@H]3C(=O)NCCc3ccc(C(F)(F)F)cc3)nc(C(F)(F)F)n2)CC1` [Compound 114, (S)-2-(2-(4-(1-(2-(trifluoromethyl)-6-(2-((4-(trifluoromethyl)phenethyl)-carbamoyl)-pyrrolidin-1-yl)pyrimidin-4-yl)piperidin-4-yl)butanamido)ethyl-sulfonamido)acetic acid], for which the EC50 in the test on Mouse STC-1 cells (setting [1]) and at mouse TGR5 receptor was less than 100 nM each time.

In the case of `N#Cc1ccc(CCNC(=O)[C@@H]2CCN2c2cc(N3CCC(CCCC(=O)O)CC3)nc(C(F)(F)F)n2)cc1` [Compound 231, (S)-4-(1-(6-(2-((4-cyanophenethyl)carbamoyl)azetidin-1-yl)-2-(trifluoromethyl)pyrimidin-4-yl)piperidin-4-yl)butanoic acid], the values for the EC50 in the test on Mouse STC-1 cells (setting [1]) and on mouse TGR5 receptor were 100 to 999 nM and less than 100 nM, respectively.

`N#Cc1ccc(CCNC(=O)[C@@H]2CCN2c2cc(N3CCC(CCNC(=O)NCCC(=O)O)CC3)nc(C(F)(F)F)n2)cc1` [Compound 268, (S)-3-(3-(2-(1-(6-(2-((4-cyanophenethyl)carbamoyl)azetidin-1-yl)-2-(trifluoromethyl)pyrimidin-4-yl)piperidin-4-yl)ethyl)ureido)propanoic acid]: the EC50 in the test on Mouse STC-1 cells (setting [1]) is less than 100 nM; in the test on Mouse STC-1 cells (Mus musculus, STC-1, read-out: EC50 concentration of GLP-1 stimulation in STC-1 cells), approximately 55 nM; at mouse TGR5 receptor, less than 100 nM.

On to `O=C(O)CC[C@@H](NC(=O)CCCC1CCN(c2cc(N3CC[C@H]3C(=O)NCCc3ccc(C(F)(F)F)cc3)nc(C(F)(F)F)n2)CC1)C(=O)O` [Compound 294, (R)-2-(4-(1-(2-(trifluoromethyl)-6-((S)-2-((4-(trifluoromethyl)-phenethyl)carbamoyl)azetidin-1-yl)pyrimidin-4-yl)piperidin-4-yl)butanamido)pentanedioic acid], for which the EC50 in the test with Mouse STC-1 cells (setting [1]) and on mouse TGR5 receptor was less than 100 nM throughout.

For `N#Cc1ccc(CCNC(=O)[C@@H]2CCCN2c2cc(N3CCC(CCCC(=O)N[C@@H](CCCNC(=N)N)C(=O)N[C@@H](CCCNC(=N)N)C(=O)O)CC3)cc(C(F)(F)F)n2)cc1` [Compound 202, (S)-2-((S)-2-(4-(1-(2-((S)-2-((4-cyanophenethyl)carbamoyl)pyrrolidin-1-yl)-6-(trifluoromethyl)pyridin-4-yl)piperidin-4-yl)butanamido)-5-guanidinopentanamido)-5-guanidinopentanoic acid], the EC50 in the test on Mouse STC-1 cells (setting [1]) and at mouse TGR5 receptor was less than 100 nM each time.

Take `N#Cc1ccc(CCNC(=O)[C@@H]2CCCN2c2cc(N3CCC(CCCNC(=O)NCCS(N)(=O)=O)CC3)nc(C(F)(F)F)n2)cc1` [Compound 120, (S)-N-(4-cyanophenethyl)-1-(6-(4-(3-(3-(2-sulfamoylethyl)ureido)propyl)piperidin-1-yl)-2-(trifluoromethyl)pyrimidin-4-yl)pyrrolidine-2-carboxamide]: the EC50 in the test on Mouse STC-1 cells (setting [1]) and on mouse TGR5 receptor was less than 100 nM in each case.

In the case of `N#Cc1ccc(CCNC(=O)[C@@H]2CCCN2c2cc(N3CCC(CCCNC(=O)NCC(=O)O)CC3)nc(C(F)(F)F)n2)cc1` [Compound 121, (S)-2-(3-(3-(1-(6-(2-((4-cyanophenethyl)carbamoyl)pyrrolidin-1-yl)-2-(trifluoromethyl)pyrimidin-4-yl)piperidin-4-yl)propyl)ureido)acetic acid], the EC50 in the test with Mouse STC-1 cells (setting [1]) is 100 to 999 nM; at mouse TGR5 receptor it was less than 100 nM.

On to `N#Cc1ccc(CCNC(=O)[C@@H]2CCCN2c2cc(N3CCC(CCCC(=O)NCC(=O)O)CC3)nc(C(F)(F)F)n2)cc1` [Compound 103, (S)-2-(4-(1-(6-(2-((4-cyanophenethyl)carbamoyl)pyrrolidin-1-yl)-2-(trifluoromethyl)pyrimidin-4-yl)piperidin-4-yl)butanamido)acetic acid], for which the EC50 in the test with Mouse STC-1 cells (setting [1]) and on mouse TGR5 receptor was less than 100 nM each time.

Consider `N#Cc1ccc(CCNC(=O)[C@@H]2CCCN(c3cc(N4CCC(CCNC(=O)NCCC(=O)O)CC4)nc(C(F)(F)F)n3)C2)cc1` [Compound 347, (R)-3-(3-(2-(1-(6-(3-((4-cyanophenethyl)carbamoyl)piperidin-1-yl)-2-(trifluoromethyl)pyrimidin-4-yl)piperidin-4-yl)ethyl)ureido)propanoic acid], for which the EC50 in the test on Mouse STC-1 cells (setting [1]) is 100 to 999 nM; at mouse TGR5 receptor, less than 100 nM.

With `N#Cc1ccc(CCNC(=O)[C@@H]2CCCN2c2cc(-c3ccc(CO)cc3)cc(C(F)(F)F)n2)cc1` [Compound 204, (S)—N-(4-cyanophenethyl)-1-(4-(4-(hydroxymethyl)phenyl)-6-(trifluoromethyl)pyridin-2-yl)pyrrolidine-2-carboxamide], the EC50 with Mouse STC-1 cells (setting [1]) was 100 to 999 nM; at mouse TGR5 receptor it was less than 100 nM.

`N#Cc1ccc(CCNC(=O)[C@@H]2CCN2c2cc(N3CCC(CCCC(=O)NCCCCNC(=N)N)CC3)nc(C(F)(F)F)n2)cc1` [Compound 283, (S)-N-(4-cyanophenethyl)-1-(6-(4-(4-((4-guanidinobutyl)amino)-4-oxobutyl)piperidin-1-yl)-2-(trifluoromethyl)pyrimidin-4-yl)azetidine-2-carboxamide]: the values for the EC50 in the test with Mouse STC-1 cells (setting [1]) and on mouse TGR5 receptor were 100 to 999 nM and less than 100 nM, respectively.

For `N#Cc1ccc(CCNC(=O)[C@@H]2CCCN2c2cc(N3CCC(CCNC(=O)NCP(=O)(O)O)CC3)nc(C(F)(F)F)n2)cc1` [Compound 372, (S)-((3-(2-(1-(6-(2-((4-cyanophenethyl)carbamoyl)pyrrolidin-1-yl)-2-(trifluoromethyl)pyrimidin-4-yl)piperidin-4-yl)ethyl)ureido)methyl)phosphonic acid], the EC50 in the test with Mouse STC-1 cells (setting [1]) and at mouse TGR5 receptor was less than 100 nM each time.

As to `O=C(CCCC1CCN(c2cc(N3CCC[C@H]3C(=O)NCCc3ccc(C(F)(F)F)cc3)nc(C(F)(F)F)n2)CC1)NCCS(=O)(=O)O` [Compound 58, (S)-2-(4-(1-(2-(trifluoromethyl)-6-(2-((4-(trifluoromethyl)phenethyl)-carbamoyl)-pyrrolidin-1-yl)-pyrimidin-4-yl)piperidin-4-yl)butanamido)ethanesulfonic acid], the EC50 in the test on Mouse STC-1 cells (setting [1]) and at mouse TGR5 receptor was less than 100 nM each time.

On to `N#Cc1ccc(CCNC(=O)[C@@H]2CCCN2c2cc(N3CCC(CCNS(=O)(=O)CCNC(=N)N)CC3)nc(C(F)(F)F)n2)cc1` [Compound 130, (S)-N-(4-cyanophenethyl)-1-(6-(4-(2-(2-guanidinoethylsulfonamido)ethyl)piperidin-1-yl)-2-(trifluoromethyl)pyrimidin-4-yl)pyrrolidine-2-carboxamide], for which the EC50 in the test with Mouse STC-1 cells (setting [1]) and at mouse TGR5 receptor was less than 100 nM in each case.

On to `N[C@@H](CS(=O)(=O)O)C(=O)NCCC1CCN(c2cc(N3CC[C@H]3C(=O)NCCc3ccc(C(F)(F)F)cc3)nc(C(F)(F)F)n2)CC1` [Compound 278, (R)-2-amino-3-oxo-3-((2-(1-(2-(trifluoromethyl)-6-((S)-2-((4-(trifluoromethyl)-phenethyl)carbamoyl)azetidin-1-yl)pyrimidin-4-yl)piperidin-4-yl)ethyl)amino)-propane-1-sulfonic acid], for which the EC50 with Mouse STC-1 cells (setting [1]) and at mouse TGR5 receptor was less than 100 nM in each case.

Take `N#Cc1ccc(CCNC(=O)[C@@H]2CCN2c2cc(N3CCC(CCNc4c(NCCS(=O)(=O)O)c(=O)c4=O)CC3)nc(C(F)(F)F)n2)cc1` [Compound 297, (S)-2-((2-((2-(1-(6-(2-((4-cyanophenethyl)carbamoyl)azetidin-1-yl)-2-(trifluoromethyl)pyrimidin-4-yl)piperidin-4-yl)ethyl)amino)-3,4-dioxocyclobut-1-en-1-yl)amino)ethanesulfonic acid]: the EC50 is 100 to 999 nM in the test with Mouse STC-1 cells (setting [1]) and less than 100 nM on mouse TGR5 receptor.
